Reference: ChEMBL document CHEMBL1201862, “PubChem BioAssay data set” (2004)
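96-well plates; 48 h exposure; 5 concentrations. Endpoints by linear interpolation between flanking doses. Not reached: highest tested concentration assigned. The concentration for 50% growth inhibition is given as GI50.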 The source made the active and inactive calls. Cut-off read from the data, not from the text of the source: active = GI50 up to about 1.1 µM and inactive = higher.

What was measured:
Assay in all cases: NCI anticancer screen, dose series, 48 h
[1] = tested on: SR
[2] = tested on: HCT-15
[3] = tested on: NCI-H522
[4] = tested on: UACC-62
[5] = tested on: SF-268
[6] = tested on: SF-295
[7] = tested on: K562
[8] = tested on: A498
[9] = tested on: A549
[10] = tested on: TK-10
[11] = tested on: MOLT-4
[12] = tested on: HL-60
[13] = tested on: SF-539
[14] = tested on: LOX IMVI
[15] = tested on: RPMI-8226
[16] = tested on: 786-0
[17] = tested on: OVCAR-3

Row | SMILES | GI50 [1] | GI50 [2] [µM] | GI50 [3] | GI50 [4] | GI50 [5] | GI50 [6] | GI50 [7] | GI50 [8] | GI50 [9] | GI50 [10] | GI50 [11] | GI50 [12] | GI50 [13] | GI50 [14] | GI50 [15] | GI50 [16] | GI50 [17]
1 | C=C1CCC2C(C)(CO)C(O)CCC2(C)C1CC(O)/C(=C/CO)C(=O)O (stereo unspecified) | > 100 µM (inactive) | > 100 | > 100 µM (inactive) | > 100 µM (inactive) | > 100 µM (inactive) | > 100 µM (inactive) | > 100 µM (inactive) | > 100 µM (inactive) | > 100 µM (inactive) | > 100 µM (inactive) | > 100 µM (inactive) | > 100 µM (inactive) | > 100 µM (inactive) | > 100 µM (inactive) | > 100 µM (inactive) | > 100 µM (inactive) | 
2 | COc1ccc(C(N)=O)c(OC)c1OCc1ccccc1 |  | > 100 | 12.4 µM (inactive) | > 100 µM (inactive) | > 100 µM (inactive) | > 100 µM (inactive) | > 100 µM (inactive) | > 100 µM (inactive) | > 100 µM (inactive) | > 100 µM (inactive) | > 100 µM (inactive) | > 100 µM (inactive) | > 100 µM (inactive) | > 100 µM (inactive) | > 100 µM (inactive) | > 100 µM (inactive) | > 100 µM (inactive)
3 | N#CNCC(COCc1ccccc1)c1ccccc1 (stereo unspecified) |  | 86.1 | > 100 µM (inactive) | > 100 µM (inactive) | > 100 µM (inactive) |  | 40.3 µM (inactive) | > 100 µM (inactive) | > 100 µM (inactive) | > 100 µM (inactive) | 71.1 µM (inactive) | 61.4 µM (inactive) | > 100 µM (inactive) | > 100 µM (inactive) | > 100 µM (inactive) | > 100 µM (inactive) | 
4 | O=C(Nc1ccccc1-c1nn(CN2CCNCC2)c(=S)n(CN2CCNCC2)c1=O)C(F)(F)F |  | 15.9 |  | 18.3 µM (inactive) | 21.4 µM (inactive) | 29 µM (inactive) | 21.9 µM (inactive) | 18.2 µM (inactive) | 22.3 µM (inactive) | 27.5 µM (inactive) | 23 µM (inactive) | 16.4 µM (inactive) | 18.4 µM (inactive) | 18.8 µM (inactive) |  | 18.7 µM (inactive) | 20.7 µM (inactive)
5 | CCC1=C(C)/C(=C/c2[nH]c(CBr)c(CC)c2C)N=C1CBr |  | 8.71 | 2.81 µM (inactive) | 6.05 µM (inactive) | 13.7 µM (inactive) | 20.9 µM (inactive) | 8.22 µM (inactive) |  | 18.4 µM (inactive) | 18.4 µM (inactive) | 5.81 µM (inactive) | 4.59 µM (inactive) | 18.7 µM (inactive) | > 100 µM (inactive) | 5.66 µM (inactive) | 17 µM (inactive) | 16.1 µM (inactive)
6 | C[Si](C)(C)[C@@]1([Se]c2ccccc2)CC[C@@H]1C(=O)c1ccccc1 |  | 45.8 | 23.7 µM (inactive) | 71.4 µM (inactive) | 28.8 µM (inactive) | 51.3 µM (inactive) | 34.5 µM (inactive) | > 100 µM (inactive) | 56.2 µM (inactive) | > 100 µM (inactive) | 21.3 µM (inactive) |  | 62.7 µM (inactive) | 35.9 µM (inactive) | 20.1 µM (inactive) | > 100 µM (inactive) | 84.1 µM (inactive)
7 | O=C(CC1(O)C(=O)Nc2c(Cl)cccc21)c1ccccc1 (stereo unspecified) |  | > 100 | > 100 µM (inactive) |  | > 100 µM (inactive) | > 100 µM (inactive) | > 100 µM (inactive) |  | > 100 µM (inactive) | > 100 µM (inactive) | > 100 µM (inactive) | > 100 µM (inactive) |  | > 100 µM (inactive) | 49.3 µM (inactive) | > 100 µM (inactive) | > 100 µM (inactive)
8 | CCOc1ccc(OCC)c([P+](c2ccccc2)(c2ccccc2)c2ccccc2)c1 |  |  |  | 0.792 µM (active) | 0.617 µM (active) | 0.33 µM (active) | 0.213 µM (active) | 0.785 µM (active) | 0.443 µM (active) | 0.495 µM (active) |  | 0.114 µM (active) | 0.685 µM (active) | 0.35 µM (active) | 0.286 µM (active) | 0.879 µM (active) | 0.162 µM (active)
9 | CCOC(=O)C(Sc1ccccc1)c1c(OC)cc(=O)oc1/C=[N+](/[O-])c1ccc(N(C)C)cc1 (stereo unspecified) |  | 15.4 |  | 22.6 µM (inactive) | 31.5 µM (inactive) | 24.4 µM (inactive) | 6.81 µM (inactive) | 52.7 µM (inactive) | 28.4 µM (inactive) | 35 µM (inactive) | 13.8 µM (inactive) |  | 24.4 µM (inactive) | 13.4 µM (inactive) | 19.6 µM (inactive) | 19.7 µM (inactive) | 13.2 µM (inactive)
10 | O=C1C(=O)N(c2ccc(Cl)c(Cl)c2)C(=O)C(=O)C1c1nc2ccccc2s1 | > 100 µM (inactive) | 87.1 | > 100 µM (inactive) | > 100 µM (inactive) | > 100 µM (inactive) | > 100 µM (inactive) |  | > 100 µM (inactive) | > 100 µM (inactive) | > 100 µM (inactive) | > 100 µM (inactive) |  | > 100 µM (inactive) | > 100 µM (inactive) | > 100 µM (inactive) | > 100 µM (inactive) | > 100 µM (inactive)
11 | CCOc1ccccc1NC(=O)CC1Sc2ccccc2NC1=O (stereo unspecified) | 21 µM (inactive) | 53 | 27.4 µM (inactive) | 36.2 µM (inactive) | > 100 µM (inactive) | 43.6 µM (inactive) | 38 µM (inactive) |  | 82.2 µM (inactive) | > 100 µM (inactive) | 41.5 µM (inactive) | 23.9 µM (inactive) | 62.7 µM (inactive) | > 100 µM (inactive) |  | > 100 µM (inactive) | 37.5 µM (inactive)
12 | CCc1ccccc1NC(=O)C1=C(C)NC(C)=C(C(=O)Nc2ccccc2CC)C1c1ccccc1Cl |  |  | 69.5 µM (inactive) |  | > 100 µM (inactive) | > 100 µM (inactive) | > 100 µM (inactive) | 18.7 µM (inactive) | > 100 µM (inactive) | > 100 µM (inactive) | 92.7 µM (inactive) | 64.6 µM (inactive) | > 100 µM (inactive) | > 100 µM (inactive) | > 100 µM (inactive) | > 100 µM (inactive) | > 100 µM (inactive)
13 | CN(C)CC1CCC/C1=N/OC(=O)c1ccccc1 (stereo unspecified) | > 100 µM (inactive) | > 100 | > 100 µM (inactive) | > 100 µM (inactive) | > 100 µM (inactive) | > 100 µM (inactive) | > 100 µM (inactive) | > 100 µM (inactive) |  | > 100 µM (inactive) | > 100 µM (inactive) |  | > 100 µM (inactive) | > 100 µM (inactive) | > 100 µM (inactive) | > 100 µM (inactive) | > 100 µM (inactive)
14 | CC12O[Te]34OC1(C)C(C)(O3)C2(C)O4 | 7.66 µM (inactive) | 17.4 | 11.8 µM (inactive) | 30.1 µM (inactive) | 11.8 µM (inactive) | 3.86 µM (inactive) |  | > 8.75 µM (inactive) | 12.3 µM (inactive) | 17 µM (inactive) | 6.47 µM (inactive) |  | 15.9 µM (inactive) | 3.56 µM (inactive) |  | 15.3 µM (inactive) | 17.9 µM (inactive)
15 | O=C(O)c1cc2c(ncc3c(=O)n(-c4ccccc4)[nH]c32)s1 | > 100 µM (inactive) | > 100 | > 100 µM (inactive) | > 100 µM (inactive) | > 100 µM (inactive) |  | > 100 µM (inactive) |  | > 100 µM (inactive) | > 100 µM (inactive) | > 100 µM (inactive) |  | > 100 µM (inactive) | > 100 µM (inactive) | > 100 µM (inactive) |  | > 100 µM (inactive)
16 | NC(=O)c1ncn(CCN2CCN(C(=O)NCCCCCCNC(=O)N3CCN(CCn4cnc(C(N)=O)c4N)CC3)CC2)c1N | > 100 µM (inactive) | > 100 |  | > 100 µM (inactive) | > 100 µM (inactive) | > 100 µM (inactive) | > 100 µM (inactive) |  | > 100 µM (inactive) | > 100 µM (inactive) | > 100 µM (inactive) | > 100 µM (inactive) | > 100 µM (inactive) | > 100 µM (inactive) | > 100 µM (inactive) | > 100 µM (inactive) | > 100 µM (inactive)
17 | Cc1cc(Cl)ccc1NC(=O)CC1SC(Nc2ccccc2Cl)=NC1=O (stereo unspecified) | 20.6 µM (inactive) | 39.9 | 29.8 µM (inactive) | 30.3 µM (inactive) | 39 µM (inactive) | 52.6 µM (inactive) | 37.8 µM (inactive) | 65.6 µM (inactive) | 36.3 µM (inactive) | 88.5 µM (inactive) | 30.2 µM (inactive) | 15.9 µM (inactive) | 20.3 µM (inactive) |  | 23.2 µM (inactive) | 53.8 µM (inactive) | 28.3 µM (inactive)
18 | Cc1nc2c(=O)n(C)c(=O)nc-2n(-c2ccc(Cl)cc2)c1C |  | 61.9 | > 100 µM (inactive) | 43.9 µM (inactive) | > 100 µM (inactive) | > 100 µM (inactive) | 41.7 µM (inactive) | > 100 µM (inactive) | > 100 µM (inactive) | > 100 µM (inactive) |  | 45.3 µM (inactive) | > 100 µM (inactive) |  |  | > 100 µM (inactive) | > 100 µM (inactive)
19 | C[n+]1ccc2[nH]c3ccccc3c2c1 |  | > 100 | > 100 µM (inactive) | > 100 µM (inactive) | > 100 µM (inactive) | > 100 µM (inactive) | > 100 µM (inactive) | 90.2 µM (inactive) | > 100 µM (inactive) | > 100 µM (inactive) | 38.8 µM (inactive) | > 100 µM (inactive) | > 100 µM (inactive) | > 100 µM (inactive) | > 100 µM (inactive) | > 100 µM (inactive) | > 100 µM (inactive)
